Source: US10040783B2 (Emory University, priority 2011, dated 2018)
Entries after “also recorded” stand apart in the source; their conditions may differ. Like-named read-outs stand apart in the source and are kept apart here.

Legend:
[1] = test system: C6G cells; assay: CellTiter-Glo luminescent cell viability assay (cytotoxicity)
[2] = target: EP4 receptor (Homo sapiens, UniProt P35408); assay: Schild regression analysis for EP4 receptor; format: cell-based; conditions: for Kb: read-out: KB (μM) EP4, from Schild regression analysis
Sequence of EP4 receptor (P35408 whole entry): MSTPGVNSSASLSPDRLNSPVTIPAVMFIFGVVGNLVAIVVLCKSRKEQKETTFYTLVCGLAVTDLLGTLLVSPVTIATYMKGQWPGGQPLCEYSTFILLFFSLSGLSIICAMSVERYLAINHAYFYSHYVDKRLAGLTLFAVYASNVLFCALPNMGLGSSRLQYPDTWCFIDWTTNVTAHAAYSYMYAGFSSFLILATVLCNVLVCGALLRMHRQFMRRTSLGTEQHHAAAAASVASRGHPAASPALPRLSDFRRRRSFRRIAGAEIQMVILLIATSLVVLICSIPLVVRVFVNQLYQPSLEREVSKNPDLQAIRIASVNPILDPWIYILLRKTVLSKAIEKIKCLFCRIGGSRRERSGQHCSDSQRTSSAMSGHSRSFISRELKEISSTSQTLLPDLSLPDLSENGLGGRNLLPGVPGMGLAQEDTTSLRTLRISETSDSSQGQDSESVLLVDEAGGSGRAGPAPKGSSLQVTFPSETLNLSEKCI
From the text: (§1) Information on the modality of antagonism can be obtained by performing Schild regression analysis characterized by: log (dr−1)=log XB−log KB. In the equation, dose ratio (dr)=fold shift in EC50, XB=[antagonist], KB=equilibrium dissociation constant for the antagonist-receptor complex. […] Thus, a lower KB value indicates a higher inhibitory potency.

[3] = in vitro; conditions: rat; for CC50 at 48 h: C6G cells
[4] = test system: rat primary hippocampal cultures; assay: NMDA-induced LDH release (excitotoxicity) in primary hippocampal cultures; format: cell-based; conditions: for activity at 10 µM: 10 μM compound
From the text: Excitotoxicity caused by NMDA receptor activation is recognized to induce neuronal apoptosis both in vitro and in vivo in cortical neurons. NMDA receptor activation can, via COX-2, cause prostaglandin production, including PGE2. Activation of the EP2 receptor by PGE2 in microglia can promote neuroinflammation in several models of neurodegenerative diseases. The effect of EP2 antagonist compounds were examined on NMDA-induced excitotoxicity. Rat primary hippocampal cultures (DIV13-15) were preincubated with vehicle or increasing concentrations of test compound for 15-20 min, followed by treatment with NMDA (30 μM) plus glycine (10 μM) overnight in continued presence of the test compound. Lactate dehydrogenase (LDH) release was used as the measure of neuronal injury.

[5] = target: T1, EP2 receptor (Homo sapiens, UniProt P43116); assay: Schild regression of PGE2-induced EP2 activation in C6G-EP2 cells; format: cell-based; set-up: expressed in transfected cells; host or cells: C6G-EP2 cells; conditions: for Schild plot slope: PGE2; for Modality of antagonism on EP2 receptor: Schild plots
T1 sequence (P43116 whole entry): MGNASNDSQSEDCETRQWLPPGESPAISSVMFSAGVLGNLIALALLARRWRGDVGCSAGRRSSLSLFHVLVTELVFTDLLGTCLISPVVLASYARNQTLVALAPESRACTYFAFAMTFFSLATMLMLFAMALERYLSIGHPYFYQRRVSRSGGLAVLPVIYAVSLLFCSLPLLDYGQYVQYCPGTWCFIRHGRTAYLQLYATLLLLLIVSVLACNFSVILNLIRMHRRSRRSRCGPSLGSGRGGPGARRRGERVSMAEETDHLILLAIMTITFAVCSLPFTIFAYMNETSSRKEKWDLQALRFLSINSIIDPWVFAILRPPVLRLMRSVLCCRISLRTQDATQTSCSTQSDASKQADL
Experimental: as §1
To perform the Schild regression, C6G-EP2 cells were incubated first with vehicle, 0.01, 0.1 or 1 μM of test compound for 5 minutes, then with increasing concentrations of PGE2 to activate the EP2 receptor.

[6] = test system: PC3 cells; assay: Cell invasion across Matrigel-coated filter; format: cell-based; conditions: for Effect on PC3 cell invasion (cells moved across Matrigel-coated filter): butaprost 1 μM
From the text: (§2) PGE2/EP2 signaling has been recognized to play important roles in mediating tumor progression and tumor-associated angiogenesis.

[7] = target: T1, EP2 receptor; assay: Butaprost-induced cAMP accumulation in PC3 cells; format: cell-based; set-up: PC3 cells express a substantially higher level of EP2 than DU145 and LNCap cells; endogenous in cells; host or cells: PC3 cells; conditions: concentration-dependent
From the text: as §2

[8] = test system: PC3 cells; assay: MTT cell proliferation assay, butaprost-promoted growth; format: cell-based
From the text: as §2

[9] = test system: iNOS, COX-2, IL-1β and IL-6 expression; assay: qRT-PCR of inflammatory mediators in microglia-enriched cultures; format: cell-based, rat
From the text: Nitric oxide (NO) synthesized by iNOS and prostaglandins produced by COX-2 are effectors of neurotoxicity and neuroinflammation, thus, these two inducible enzymes have been recognized as inflammatory mediators produced in activated microglia. As the dominant enzymatic product of COX-2, PGE2 therefore might play a role in microglia-mediated neuroinflammation and neurodegeneration.

[10] = target: T2, human DP1 receptors (Homo sapiens, UniProt Q13258); assay: DP1 assay: BW245C-induced cAMP, TR-FRET, in C6G cells expressing DP1; format: cell-based; conditions: agonist BW245C
T2 construct: expressed in transfected cells
T2 sequence (Q13258 1-359): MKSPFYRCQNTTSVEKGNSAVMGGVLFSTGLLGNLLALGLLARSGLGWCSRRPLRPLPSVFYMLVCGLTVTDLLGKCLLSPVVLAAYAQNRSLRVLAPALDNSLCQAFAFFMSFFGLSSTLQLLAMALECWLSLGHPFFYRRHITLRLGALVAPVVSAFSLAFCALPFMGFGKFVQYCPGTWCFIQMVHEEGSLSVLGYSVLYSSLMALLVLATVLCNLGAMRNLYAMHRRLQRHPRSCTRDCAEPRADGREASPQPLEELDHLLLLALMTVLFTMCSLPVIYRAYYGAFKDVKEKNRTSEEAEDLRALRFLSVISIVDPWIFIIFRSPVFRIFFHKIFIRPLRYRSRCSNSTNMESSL
Experimental: DP1 Assay Both DP1 and EP2 receptors are positively coupled through Gαs to cAMP production and conduct very similar physiological and pathological events. Among the eight canonical prostanoid receptors, DP1 has similarities to EP2 at both protein and DNA level. C6G cells that stably expressing human DP1 receptors were seeded into 384-well plates in 30 μL complete medium (4,000 cells per well) and grown overnight. The medium was thoroughly withdrawn and 10 μL HBSS (HyClone) plus 20 μM rolipram were added into the wells to block phosphodiesterase. […] The cells were lysed in 10 μL lysis buffer containing the FRET acceptor cAMP-d2 and 1 min later another 10 μL lysis buffer with anti-cAMP-Cryptate was added. […] The FRET signal is expressed as F665/[…].

[11] = test system: rat microglia-enriched cultures; assay: LDH release in microglia-enriched cultures; format: cell-based; conditions: 10 μM, overnight, basal
Experimental: Microglia are the initial and major mediators of neuroinflammation and neurodegeneration in various models of neurological disorders. EP2 receptor has been reported to regulate microglial activation and subsequent neurotoxicity in several animal models. The effects of EP2 activation in microglia were investigated. Rat microglia-enriched cultures were incubated with vehicle, butaprost, or compound A1 overnight. The cellular viability was evaluated by measuring Lactate dehydrogenase (LDH) release.

[12] = Rattus norvegicus, NMDA 30 μM plus glycine 10 μM overnight, read-out: NMDA-induced LDH release, % of control
[13] = C6G-EP2 cells, PGE2 as agonist, read-out: KB (nM) EP2, from Schild regression analysis
[14] = additional compounds tables, read-out: EP2 KB

| Compound | Therapeutic index (in vitro), CC50/KB for EP2 [1] | Selective index, KB EP4/KB EP2 [2] | Kb [2] | CC50 at 48 h [3] | activity at 10 µM [4, 12] | Kb [5, 13] | Kb [10] | Kb [5, 14] | further results |
| --- | --- | --- | --- | --- | --- | --- | --- | --- | --- |
| COc1cc(C=CC(=O)NCCn2c(C)cc3cc(F)ccc32)cc(OC)c1OC [1f, N-(2-(5-fluoro-2-methyl-1H-indol-1-yl)ethyl)-3-(3,4,5-trimethoxyphenyl)acrylamide] | 73,800 | 2,600 | 5.4 µM | 155 µM | 38.5% | 2.1 nM | – | – | – |
| COc1ccc(/C=C/C(=O)NCCn2c(C)cc3ccccc32)cc1Cl [1w] | 253,000 | 2,470 | 4.7 µM | 481 µM | 78.4% | 1.9 nM | – | – | – |
| COc1cc(C=CC(=O)NCCn2c(C)cc3ccccc32)cc(OC)c1OC [A1, N-(2-(2-methyl-1H-indol-1-yl)ethyl)-3-(3,4,5-trimethoxyphenyl)acrylamide] | – | – | – | – | 50.8% | – | – | – | CC50 [3]: 172 µM; activity at 0.01 µM ([4]; Rattus norvegicus, 0.01 μM compound, NMDA 30 μM plus glycine 10 μM overnight, read-out: NMDA-induced LDH release, % of control): 94%; activity at 0.1 µM ([4]; Rattus norvegicus, 0.1 μM compound, NMDA 30 μM plus glycine 10 μM overnight, read-out: NMDA-induced LDH release, % of control): 87.8%; activity at 1 µM ([4]; Rattus norvegicus, 1 μM compound, NMDA 30 μM plus glycine 10 μM overnight, read-out: NMDA-induced LDH release, % of control): 73.9%; EC50 ([4]; rat hippocampal cultures, read-out: EC50 for the reduction of NMDA-induced LDH release): 0.8 µM; Effect on PC3 cell invasion promoted by EP2 activation ([6]; cotreatment 1 μM with butaprost 1 μM): inhibited; also recorded: blocked; Inhibition of butaprost-induced EP2 receptor activation [7]: robust competitive inhibition; Effect on butaprost-induced PC3 cell growth ([8]; concentration-dependent): attenuated; Schild plot slope ([5]; C6G-EP2 cells): 1.0; Modality of antagonism on EP2 receptor [5]: competitive antagonism; Effect on butaprost-induced upregulation of inflammatory mediators ([9]; 0.1-10 μM, concentration-dependent): inhibited; also recorded: attenuated |
| COc1ccc(C=CC(=O)NCCn2c(C)cc3ccccc32)cc1OC [A2, 3-(3,4-dimethoxyphenyl)-N-(2-(2-methyl-1H-indol-1-yl)ethyl)acrylamide] | 86,300 | 435 | 2 µM | 397 µM | 77.8% | 4.6 nM | – | – | Schild plot slope ([5]; C6G-EP2 cells): 1.1; Modality of antagonism on EP2 receptor [5]: competitive antagonism |
| COc1cc(/C=C/C(=O)NCCc2c(C)[nH]c3ccccc23)cc(OC)c1OC [TG7-74] | – | – | – | – | – | – | 0.112 µM | 2.9 nM | – |
| COc1ccc(/C=C/C(=O)NCCc2c(C)[nH]c3ccccc23)cc1OC [TG7-76] | – | – | – | – | – | – | 0.227 µM | 6 nM | – |
| Cc1cc(/C=C/C(=O)NCCn2c(C)cc3ccccc32)cc(C)c1F [TG7-98, 3-(4-fluoro-3,5-dimethylphenyl)-N-(2-(2-methyl-1H-indol-1-yl)ethyl)acrylamide] | – | – | – | – | – | – | 0.745 µM | 4.4 nM | – |
| COc1ccc(C(=O)NCCn2c(C)cc3ccccc32)cc1OC [TG7-112-2, 3,4-dimethoxy-N-(2-(2-methyl-1H-indol-1-yl)ethyl)benzamide] | – | – | – | – | – | – | 1.43 µM | – | – |
| CC(=O)Nc1ccc(C(=O)NCCn2c(C)cc3ccccc32)cc1 [TG7-117, 4-acetamido-N-(2-(2-methyl-1H-indol-1-yl)ethyl)benzamide] | – | – | – | – | – | – | 5.83 µM | 83 nM | – |
| CCCC1([C@H](O)C/C=C/[C@H]2[C@H](O)CC(=O)[C@@H]2CCCCCCC(=O)OC)CCC1 [butaprost] | – | – | – | – | – | – | – | – | LDH release compared to control [11]: 138%; Effect on PC3 cell invasion (cells moved across Matrigel-coated filter) [6]: promoted cell invasion; Effect on PC3 cell invasion (cells moved across Matrigel-coated filter) ([6]; listed as Butaprost): significantly increased; Concentration giving maximal response of PC3 cell growth [8]: 1 µM; Effect of EP2 activation on PC3 cell growth [8]: promoted PC3 cell growth; COX-2 expression increase ([9]; butaprost 1 μM, qRT-PCR): 16.3 fold; IL-1β expression increase ([9]; butaprost 1 μM, qRT-PCR): 1.8 fold; IL-6 expression increase ([9]; butaprost 1 μM, qRT-PCR): 11.1 fold; iNOS expression increase ([9]; butaprost 1 μM, qRT-PCR): 3.4 fold |
